From patent US8916586B2, “Anti-angiogenic compound” (University College Dublin—National University of Ireland, …, priority 2011, dated 2014) come the findings set out here.

Experiment [1] concerns dermal-derived normal human microvascular endothelial cells (HMVEC-d). Kind of experiment: Crystal violet-based proliferation assay in HMVEC-d. As to conditions: 100 nM (FIG. 13), 24 h. It counts as cell-based. The procedure:
(§1) HMVEC-d were purchased from Clonetics, San Diego, Calif., USA. Cells were maintained in complete Endothelial Cell Medium (Clonetics® EGM®-2-MV BulletKit®) containing 500 ml of Endothelial Cell Basal Medium-2 and supplemented with hEGF, 0.5 ml; Hydrocortisone, 0.2 ml; GA-1000, 0.5 ml; FBS, 25 ml; VEGF, 0.5 ml; hFGF-B, 2.0 ml; R3-IGF-1, 0.5 ml; Ascorbic Acid, 0.5 ml in a 37° C. humidified atmosphere of 5% CO2/95% air. HMVEC-d were used for experiments between passages 4-8.
The responses to different compound treatments were examined using a crystal violet-based proliferation assay to test the effects of the compounds on cell proliferation. HMVEC-d were seeded in 96-well plates in complete medium at a density of 25,000 cells/cm^2 and allowed to attach in a humidified atmosphere of 5% CO2, 95% air and at 37° C. Cells were treated with the compounds at different concentrations in replicates wells, and cell proliferation was evaluated after 24 h. At the specific time point medium was removed, cells were fixed with 1% glutaraldehyde and stained with a 0.1% crystal violet solution (Pro-lab diagnostics) for 30 min. The plates were then washed extensively in water and air dried. Cell-associated dye was extracted with a 1% solution of Triton X100 and the absorbance was determined at 550 nm using a plate reader (Multiskan Ascent, Lab Systems).

In experiment [2] the test system is hyaloid vasculature in zebrafish. Kind of experiment: Zebrafish developmental angiogenesis assay: number of primary branches of hyaloid vasculature on dissected lens. The experiment is classed as in vivo. As to conditions: for dose-dependence of inhibition of hyaloid vasculature development: increasing concentrations between 1-10 μM, 5 dpf; for inhibition of intraocular angiogenesis (hyaloid vessels) in library screen: 5 day old larvae. The text has this:
We have used the zebrafish model as an in vivo screen for chemical libraries as the small size and transparency of the zebra fish enables high-content screens in multi-well plate formats (MacRae and Peterson, 2003; Pichler et al., 2003; Peterson et al., 2004; den Hertog, 2005; Zon and Peterson, 2005). […] To identify anti-angiogenic drugs we used a transgenic line of zebrafish that expresses a fluorescent reporter (EGFP) specifically in vasculature (Tg(fli1:efgp)). This line was obtained from the Zebrafish International Resource Center. Our assay involved screening the effect of drugs in the library on the development of blood vessels in zebrafish. Specifically, we looked at the integrity of vessels developing in the eye (hyaloid vessels attached to the lens) and in the trunk.
All experiments were carried out under ethical approval granted by the UCD animal research ethics committee. Tg(fli1:EGFP) zebrafish were maintained according to standard procedures on a 14 hr light/10 hr dark cycle at 28° C. Referring to the schematic of FIG. 1A, embryos were obtained by natural spawning and developmental stages established by time and morphological criteria. A chemical library containing numerous compounds was screened (FIG. 1A). In this specific example, the chemical library contained 5000 compounds of the DIVERSet™ collection from ChemBridge Corp., USA. At 24 hours post fertilisation (hpf), 5 embryos per well were placed in […] of Embryo Medium/1% DMSO and incubated with drug at 28° C. on a 14 h light/10 h dark cycle. Larvae were euthanised, and fixed in 4% PFA at 4° C. overnight before analysis. (FIG. 1A).
Right lenses were dissected from the larvae and transferred to depression slides for observation under epi-fluorescence in the Olympus SZX16 and to cover-slip bottom Petri-dishes for confocal microscopy in a Zeiss UV510 META LSM system (20× and 40× inverted objectives). To achieve appropriate orientation, lenses were embedded in 10% methyl-cellulose and manipulated with a tungsten needle (0.5 mm diameter). Patterning of the hyaloid vessels on the treated larval lenses was compared to DMSO controls and the archetypal pattern previously described (Alvarez et al., 2007; Alvarez et al., 2009). The number of primary vessels radiating from the back of the lens (3-4 main branches at 5 dpf in controls and previously described), was counted and the average number was graphed for each drug. From screens of ˜1600 small molecules, four “hits” that inhibited the number of primary hyaloids vessels were identified (FIG. 1B).
To validate the “hits” from the library screen, dose-dependence experiments were conducted by screening the drugs in the assay described in Example 2 above but at a range of increasing concentrations between 1-10 μM. Larvae were maintained under the drug treatments at 28° C. on 14 hr light/10 hr dark cycle until 5 days post fertilisation (dpf), when they were euthanised and fixed in 4% PFA at 4° C. overnight before analysis. The average number of primary hyaloids branches was graphed for each concentration of drug. […] One of the lead compounds identified by the screen of chemical library was 11B which has the chemical name 2-[2-2-quinolinyl)vinyl]phenol and its structure shown below: […]

Experiment [3] deals with dermal-derived normal human microvascular endothelial cells (HMVEC-d). The experiment can be described thus: HMVEC-d cell migration (CIM-plate 16, xCELLigence). It counts as cell-based. As to conditions: 100 nM (FIG. 13). On the procedure:
as §1
Continuous monitoring of HMVEC-d cultures cell migration was recorded using a CIM-plate 16 (RTCA DP Analyser, xCELLigence System, Roche) with 5% serum serving as chemoattractant and following the manufacturer's protocol. Each well is composed of an upper chamber, a membrane with an interdigitated gold electrode on the underside of the microporous membrane (facing the lower chamber) and a lower chamber. Cells that have migrated to the lower chamber containing the chemoattractant attach to the gold electrodes and generate electrical impedance. Impedance readings are taken from an electronic sensor plate and reflect their attachment levels. […] The upper chamber was then clicked into position and 30 μl of serum-free media were added to cover the membrane surface. […] 5% CO2 humidified atmosphere and the Cell Index (CI) was recorded every 15 min. […]

Experiment [4] deals with VEGF secreted from explant cultures of human colorectal cancers. Kind of experiment: VEGF secretion from human colorectal tumour explants (ELISA). It counts as cell-based. Conditions: 72 hours. On the procedure:
Human colorectal tumour samples were taken directly from the pathology laboratory after surgery once adequate material was taken for diagnostic testing. The tumour samples were washed and stored in DMSO/tumour conditioning media (TCM). The samples were snap-frozen in liquid nitrogen and stored at −80° C. until compound testing was performed. Prior to compound testing, the tumours were thawed and incubated in fresh TCM for 24 hours. […] The TCM solutions were collected and stored at −20° C. and the remaining tumour explants were snap-frozen in liquid nitrogen and stored at −80° C. The protein content of each tumour sample was determined using the BCA protein assay. ELISA was used to determine the levels of VEGF, IL-8, MCP-1, GRO-α, IL-1β and IL-6. The secretion data were normalised according to the tumour sample's protein content.
(In general: ELISA stands for enzyme-linked immunosorbent assay.)

The mark [5] stands for this setting: 5 μM, treated day 1-5, analysed 5 dpf.
Where [6] appears, read: 10 μM, treated day 1-5, analysed 5 dpf.
[7] abbreviates: 1 μM and 10 μM tested, concentration not given at place.

“Also recorded” adds a separate entry of the source.

Regarding `COc1cc2c(C3CCCN3C)cnc(Cc3ccc4c(c3)OCO4)c2cc1OC` (centres unmarked) [11F, 1-(1,3-benzodioxol-5-ylmethyl)-6,7-dimethoxy-4-(1-methyl-2-pyrrolidinyl)isoquinoline], the “effect on HMVEC-d proliferation” value in experiment [1] is “no significant effect; also recorded: neither 11B nor 11F had a significant effect”. The “number of primary branches of hyaloid vasculature” value in experiment [2] (setting [5]) and in experiment [2] (setting [6]) was “significant inhibition” in each case. In addition, in experiment [2], the “dose-dependence of inhibition of hyaloid vasculature development” value is “dose-dependent and statistically significant manner”. The “inhibition of intraocular angiogenesis (hyaloid vessels) in library screen” value in experiment [2] is recorded as “inhibit intraocular angiogenesis”. The “effect on HMVEC-d cell migration” value in experiment [3] is reported as “no significant effect; also recorded: neither 11B nor 11F had a significant effect; also recorded: neither 11B nor 11F had significant effects”. The “level of VEGF secreted by human tumour explants” value in experiment [4] (setting [7]), in experiment [4] (1 μM) and in experiment [4] (10 μM) was “significantly reduced” each time.

As for `Oc1ccccc1/C=C/c1ccc2ccccc2n1` [11B], the “effect on HMVEC-d proliferation” value in experiment [1] is “no significant effect; also recorded: neither 11B nor 11F had a significant effect”. For the same compound, the “number of primary branches of hyaloid vasculature” value in experiment [2] (4 μM, analysed 5 dpf) is “significant inhibition”; in experiment [2] (setting [5]), “significant inhibition; also recorded: significant reduction”; in experiment [2] (7.5 μM, analysed 5 dpf), “significant inhibition”; in experiment [2] (setting [6]) it was “significant inhibition; also recorded: significant reduction”. Further, in experiment [2] (10 μM), the “anti-angiogenic effect compared with Avastin, number of primary hyaloid branches” value is given as “more effective anti-angiogenic effect than Avastin”. Also, in experiment [2], the “dose-dependence of inhibition of hyaloid vasculature development” value was “dose-dependent and statistically significant manner; also recorded: dose-dependent inhibition”. In addition, the “inhibition of intraocular angiogenesis (hyaloid vessels) in library screen” value in experiment [2] is on record as “inhibit intraocular angiogenesis”. Moreover, the “effect on HMVEC-d cell migration” value in experiment [3] is “no significant effect; also recorded: neither 11B nor 11F had a significant effect; also recorded: neither 11B nor 11F had significant effects”. Also, the “level of VEGF secreted by human tumour explants” value in experiment [4] (setting [7]) was “significantly reduced”; in experiment [4] (10 μM), “significantly reduces”.
